For 16 compounds, IC50 and inhibition results are on record in patent US7335770B2, “Triazine compounds and their analogs, compositions, and methods” (Reddy U5 Therapeutics, Inc., priority 2004, dated 2008).

Assay type in all cases: cell-based
The test system of one assay is MCP1. The experiment in a line: inhibition of TNF-induced MCP1. As to conditions: for IC50: in vitro. As for the experimental part:
(§1) The activity of the compounds of the present invention in inhibiting glycated protein- and AGE-induced inflammation can be determined using the assays described herein and in U.S. patent application Ser. No. 10/026,335, which is herein incorporated in its entirety. Such assays comprise measurement of the specific activity of biological components involved in a known cellular response. The assays provide a measurable response in which the activity of the compounds is determined. One assay comprises measurement of the effects of compounds on an inflammatory response by cells to the presence of a stimulating agent. Yet another assay comprises endothelial cells that are stimulated by the addition of a glycated protein, the stimulating agent. The endothelial cells respond by producing specific cytokines. The amount of cytokines produced are determined by measurement protocols known to those skilled in the art. The compounds of the present invention are then added to the assay and the production of cytokines is measured. From the comparison of the assay without the compound with the assay with the compound, the biological effect of the compound can be determined. The compound may have an inhibitory effect, a stimulatory effect, or no effect at all.
The amount and type of cytokine produced can be determined using immunological methods, such as ELISA assays. The methods of the present invention are not limited by the type of assay used to measure the amount of cytokine produced, and any methods known to those skilled in the art and later developed can be used to measure the amount of cytokines produced in response to the stimulating agent and to the compound having unknown activity.
(§2) Assays for determining the activity of compounds capable of modulating inflammation include those taught in U.S. patent application Ser. No. 10/026,335 and 09/969,013, which are both expressly incorporated by reference. In general, once the baseline response to the stimulating agent for the production of cytokines by the endothelial cells is established, thus comprising the control levels for the screening assay, the methods comprise addition of compounds of the present invention. The effect of the compound on the baseline response is determined by comparing the amount of cytokine produced in the presence of the stimulating agent and the amount of cytokine produced in the presence of the stimulating agent and the compound of the present invention. In a preferred method, compounds that have inhibitory effects on the inflammation of the cells in the presence of glycated albumin are then used as therapeutic agents. One or more compounds may be added to the screening assay. Combinations or mixtures of compounds can be added. Different amounts and formulations of the compounds are added to determine the effects on the screening assay. The screening assay may also be used to determine stimulatory compounds or compounds that have no effects in the assay.

The next assay concerns VCAM1. The experiment in a line: inhibition of TNF-induced VCAM1. As to conditions: for IC50: in vitro. As for the experimental part:
as §1
An aspect of the present invention comprises methods and compositions for the treatment of diseases, preconditions or pathologies associated with inflammatory cytokines and other inflammation related molecules including, but not limited to IL-6, VCAM-1, AGE-induced MCP-1, (monocyte chemoattractant protein 1), heme oxygenase, insulin-like growth factor, selectins, IP-10, MIG and I-TAC, NF-κB, IL-1β (interleukin 1β), IL-11 (interleukin 11), m-CSF (macrophage colony stimulating factor), fibrinogen, TNF-α (tumor necrosis factor α), adhesion molecules, selecting, VCAM-1 (Vascular Cell Adhesion Molecule-1), CRP (C-reactive protein), and PAI-1 (plasminogen activator inhibitor-1). Examples of such diseases include the pathogenesis of atherosclerosis and the development of diabetic vasculopathy in type II diabetes. For example, affecting the activity or level of TNFα is a key mediator of tissue damage following acute or chronic inflammatory reactions. The present invention contemplates providing compositions and methods that modulate the effects of cytokines and inflammatory molecules such as TNFα, IL-6, VCAM-1, IP-10, MIG, I-TAC and AGE-induced MCP-1, and treat the associated diseases, acute or chronic conditions, preconditions and pathologies.
as §2

For another assay, the system named is IL6. The experiment in a line: inhibition of TNF-induced IL6 production. As to conditions: for IC50: given as '50% at x μM', read-out: Inhibition of TNF-induced IL6 production: concentration giving 50% inhibition.

Structures are written as SMILES.

Take `COc1ccc(Nc2nc(NC3CCCCCC3)nc(OC3CCCN(C(C)=O)C3)n2)cc1Cl` (stereo not shown) [drawing 617]: the IC50 in the assay with MCP1 came to 4.6 µM; with VCAM1, 5.2 µM.

For `COc1ccc(Nc2nc(NC3CCCCCC3)nc(OCC3CCCN3C)n2)cc1Cl` (stereo not shown) [drawing 614], the values for the IC50 in the assay on MCP1 and with VCAM1 were 3 µM and 2.5 µM, respectively.

`COc1ccc(Nc2nc(NC3CCCCCC3)nc(Oc3ccc(C#CC(C)(C)O)cc3)n2)cc1Cl` [drawing 620]: the IC50 is 3.7 µM in the assay with MCP1 and 7 µM in the assay with VCAM1.

Turning to `COc1ccc(Oc2nc(Oc3ccc(OC)c(F)c3)nc(Oc3ccc(OC)c(F)c3)n2)cc1F` [drawing 608, 2,4,6-Tris-(3-fluoro-4-meth-oxy-phenoxy)-[1,3,5]triazine], at 10 µM the inhibition in the assay with IL6 (at 10 μM) was 5%.

Take `COc1ccc(Nc2nc(NC3CCCCCC3)nc(Oc3ccccc3C#CC(C)(C)O)n2)cc1Cl` [drawing 621]: the IC50 in the assay on MCP1 was determined as 6.5 µM; in the assay with VCAM1, 7 µM.

As to `CCN1CCCC1CNc1nc(Nc2ccc(OCc3ccccc3)c(Cl)c2)nc(NC2CCCCCC2)n1` (stereo not shown) [drawing 607, N-(4-Benzyloxy-3-chloro-phenyl)-N′-cyclo-heptyl-N″-(1-ethyl-pyrrolidin-2-yl-methyl)-[1,3,5]triazine-2,4,6-triamine], in the assay with IL6, the IC50 worked out at 1.1 µM.

Take `Cc1ccc(Nc2nc(NC3CCCCCC3)nc(N(C)C3CCN(C)CC3)n2)cc1F` [drawing 605, N-Cycloheptyl--N′-(3-fluoro-4-methyl-phenyl)-N″-meth-yl-N″-(1-methyl-piperidin-4-yl)-[1,3,5]tri-azine-2,4,6-triamine]: the IC50 in the assay on IL6 turned out to be 3.6 µM.

Regarding `CN1CCC(N(C)c2nc(Nc3cccc(F)c3)nc(NC3CCCCCC3)n2)CC1` [drawing 612, N-Cyclo-heptyl-N′-(3-fluoro-phenyl)-N″-meth-yl-N″-(1-methyl-piperidin-4-yl)-[1,3,5]tri-azine-2,4,6-triamine], the IC50 with IL6 was 3.2 µM.

With `CN1CCC(N(C)c2nc(Nc3cccc([N+](=O)[O-])c3)nc(NC3CCCCCC3)n2)CC1` [drawing 606, N-Cycloheptyl-N′-methyl-N′-(1-methyl-piper-idin-4-yl)-N″-(3-nitro-phenyl)-[1,3,5]tri-azine-2,4,6-triamine], in the assay on IL6, the IC50 was 3.3 µM.

As to `CCN1CCCC(Oc2nc(Nc3ccc(OC)c(Cl)c3)nc(NC3CCCCCC3)n2)C1` (stereo not shown) [drawing 622], the IC50 in the assay on MCP1 was 4.2 µM; in the assay on VCAM1, 6 µM.

On to `COc1ccc(Nc2nc(NC3CCCCCC3)nc(NC3CCN(C(=O)CCCCC4SCC5NC(=O)NC54)CC3)n2)cc1Cl` (stereo not shown) [drawing 610], for which, in the assay on IL6, the IC50 was determined as 19 µM.

With `COc1ccc(Nc2nc(NC3CCCCCC3)nc(Sc3c(Cl)cccc3Cl)n2)cc1Cl` [drawing 631], the inhibition (usually the change of the read-out against control, counted positive when it falls) at 10 µM in the assay with MCP1 (@ 10 uM concentration, read-out: TNF-induced MCP1, In-vitro % of inhibition) turned out to be 11%; in the assay with VCAM1 (@ 10 uM concentration, read-out: TNF-induced VCAM1, In-vitro % of inhibition), 6%.

In the case of `COc1ccc(Nc2nc(NC3CCCCCC3)nc(OC3CCN(C)CC3)n2)cc1Cl` [drawing 615], the figures for the IC50 in the assay on MCP1 and with VCAM1 were 4.3 µM and 4.5 µM, respectively.

With `COc1ccc(Nc2nc(NC3CCCCCC3)nc(Oc3ccc(C=O)cc3)n2)cc1Cl` [drawing 623], the IC50 in the assay with MCP1 turned out to be 6 µM; with VCAM1 it was 5.2 µM.

On to `COc1ccc(Nc2nc(NC(C)C)nc(Oc3ccc(C#CC(C)(C)O)cc3)n2)cc1Cl` [drawing 627], for which the IC50 in the assay with MCP1 stood at 3 µM; with VCAM1, 5.7 µM.

For the compound `COc1ccc(Nc2nc(NCCN)nc(NC3CCCCCC3)n2)cc1Cl` [drawing 603, N-(2-Amino-eth-yl)-N′-(3-chloro-4-methoxy-phe-nyl)-N″-cycloheptyl-[1,3,5]triazine-2,4,6-tri-amine], in the assay with IL6, the IC50 stood at 2.7 µM.
